Laboratory results published in patent US8633319B2, “7-(1H-pyrazol-4-yl)-1,6-naphthyridine compounds as Syk inhibitors” (Glaxo Group Limited, priority 2010, dated 2014).
Values joined by “and” are separate entries in the source; they are usually repeats but may differ in a detail not shown here. Identical values can stand only once. Like-named read-outs stand apart in the source and are kept apart here.

Key:
SYK lysate = target: T1, SYK lysate (Homo sapiens, UniProt P43405); experiment: Basic Syk Enzyme Activity; format: biochemical; details: read-out: average pIC50 (converted)
T1 construct: Stimulation of Ramos Cells with Anti-IgM Ab to Produce Syk & Preparation of Lysates; endogenous in cells; host or cells: Ramos B cells (human Burkitt's lymphoma, clone 296.4C10, ATCC), stimulated with anti-IgM and lysed in 1% Triton X-100
Procedure: 3 μl of SYK lysate diluted 16-fold in assay buffer (20 mM TRIS pH 7.4, 0.01% BSA, 0.1% Pluronic F-68) was added to wells containing 0.1 μl of various concentrations of compound or DMSO vehicle (1.7% final) in a Greiner low volume 384 well black plate. Following 15 min pre-incubation at room temperature, the reaction was initiated by the addition of 3 μl of substrate reagent containing Y7 Sox peptide, (Invitrogen Cat. # KNZ3071, 5 μM final), ATP (35 μM final) and MgCl2 (10 mM final) in assay buffer. The reaction was incubated at room temperature before measuring fluorescence intensity (λex 360/λem 485) on an Envision plate reader (Perkin Elmer Life Sciences, Waltham, Mass., USA) at 15 min and 55 min post-substrate addition.
Ramos B Cells (human B cells of Burkitt's lymphoma, clone 296.4C10, ATCC) were cultured in suspension in growth medium (RPMI-1640, Sigma; supplemented with 2 mM L-glutamine, Gibco; 10 mM Hepes, Sigma; 1 mM sodium pyruvate, Sigma; 10% v/v heat-inactivated FCS, Gibco). Cells were grown in Corning Cellstacks (6360 cm^2) in 1 liter volume and viability and cell density were monitored daily. Cells were maintained at <1.5×10e6/ml and >92% viability.
Cells were stimulated at 20×10^6 cells/ml using 15 ug/ml (final concentration) anti-IgM antibody. Following harvest (as described above), a total of 4×10^9 cells were resuspended in 180 ml pre-warmed (37° C.) DPBS in a Corning 500 ml centrifuge bottle. 20 ml anti-IgM antibody at 150 ug/ml were added to each 500 ml centrifuge bottle (working stock made up in DPBS pre-warmed to 37° C.). Cells were incubated for exactly 5 min at 37° C. following the addition of anti IgM antibody. Following 5 min stimulation, 300 ml ice-cold DPBS were added to each bottle to stop the stimulation (temperature drops to ˜12° C.) then cells were centrifuged at 2000 rpm (Sorvall Legend RT+ centrifuge—pre-chilled to 4° C.). Cells were washed by resuspension in ice-cold DPBS and centrifugation as above. The cell pellet was then lysed in ice-cold lysis buffer containing 1% triton-x-100 at a ratio of 150 ul/1×10^7 cells (i.e. 48 ml lysis buffer). Following the addition of lysis buffer, the cells were pipetted up & down & kept on ice for 15 min. The clarified lysate was then obtained by centrifugation (Sorvall Evolution RC (SLA-1500 rotor, ˜20,000 g (˜14,500 rpm), 45 min, 4° C.).
Lysate was aliquoted, snap-frozen on dry-ice & stored at −80° C. prior to assay.
Lysis Buffer: 50 mM TRIS pH7.5+150 mM NaCl+1% Triton-X-100+2 mM EGTA+1:100 dilution inhibitor cocktails (phosphatase inhibitor cocktail set II, calbiochem cat no. 524625 & protease inhibitor cocktail set V, calbiochem cat no. 539137)

[1] = test system: Salmonella typhimurium strains and Escherichia coli; experiment: Bacterial Mutation Screening Assay (Ames Test); details: as the free base; presence and absence of S9-mix
Source text: The bacterial mutation assay (Ames Test) is a short-term reverse mutation assay specifically designed to detect a wide range of chemical substances that can produce genetic damage that leads to gene mutations (base pair substitutions and frameshift mutations).
The test employs several histidine dependent Salmonella typhimurium strains and several tryptophan dependent strains of Escherichia coli each carrying different mutations in various genes in the histidine or tryptophan operon respectively. These mutations act as hot spots for mutagens that cause DNA damage via different mechanisms.
Briefly, bacteria are cultured for 10 h prior to the test. Top agar is supplemented with trace amounts of histidine, biotin, and tryptophan and aliquoted, before adding the required test article, vehicle or positive control followed by the appropriate bacterial suspension, and either an exogenous mammalian oxidative metabolism system (S9-mix) or buffer solution. The final mixture is poured over minimal agar plates which are then inverted and incubated before scoring for revertant colonies.
Bacterial Strains routinely used are Salmonella typhimurium strains TA98, TA100 TA1535 and TA1537 and Escherichia coli WP2 uvrA (pKM101).
Assays are performed in the presence and absence of an exogenous mammalian oxidative metabolising system (S9-mix), to mimic mammalian metabolism.
The highest concentration tested is one that allows maximum exposure up to 5000 μg/plate for freely soluble compounds, or the limit of solubility or toxicity (whichever is the lower). If compound solubility is a limiting factor, the maximum concentration chosen will be the lowest concentration at which compound precipitate is observed by eye on treatment plates at the end of the incubation period.
A single mutation assay (using the plate incorporation methodology) is conducted in the presence and absence of S9-mix (consisting of 4 replicate plates for vehicle controls and 2 replicate plates for the positive controls and test article).
Plates are usually scored electronically for bacterial colony formation following inspection of the plates for signs of toxicity (i.e. reduced growth (diminution) of background lawn, the presence of pin-dot/pseudorevertant colonies and/or a reduction in colony numbers). Plates will also be evaluated (by eye) for compound precipitation. […]
The number of colonies on each plate is recorded and mean values calculated for each concentration of test article used. Mean values are also be expressed as a ratio of the mean concurrent vehicle control value (i.e. fold increase). […]

| Compound | IC50 (SYK lysate; as the free base) | IC50 (SYK lysate; hydrochloric acid salts) [µM] | Ames test result [1] |
| --- | --- | --- | --- |
| COCn1cc(-c2cc3ncccc3c(NC[C@]3(F)CCCNC3)n2)cn1 [Example 3, N-{[(3S)-3-Fluoro-3-piperidinyl]methyl}-7-{1-[(methyloxy)methyl]-1H-pyrazol-4-yl}-1,6-naphthyridin-5-amine] | ≤ 0.1 µM and 0.0631 µM | ≤ 0.316 | negative |
| CCn1cc(-c2cc3ncccc3c(NC[C@]3(F)CCCNC3)n2)cn1 [Example 1, 7-(1-Ethyl-1H-pyrazol-4-yl)-N-{[(3S)-3-fluoro-3-piperidinyl]methyl}-1,6-naphthyridin-5-amine] | ≤ 0.1 µM and 0.0251 µM | ≤ 0.316 | negative |
| CCn1cc(-c2cc3ncccc3c(OC[C@]3(F)CCCNC3)n2)cn1 [Example 4, 7-(1-Ethyl-1H-pyrazol-4-yl)-5-({[(3S)-3-fluoro-3-piperidinyl]methyl}oxy)-1,6-naphthyridine] | ≤ 0.1 µM and 0.00794 µM | ≤ 0.316 | negative |
| CC(C)(C)n1cc(-c2cc3ncccc3c(NC[C@]3(F)CCCNC3)n2)cn1 [Example 2, 7-[1-(1,1-Dimethylethyl)-1H-pyrazol-4-yl]-N-{[(3S)-3-fluoro-3-piperidinyl]methyl}-1,6-naphthyridin-5-amine] | ≤ 0.1 µM and 0.02 µM | ≤ 0.316 | negative |
